Source: patent US12310946B2, “Pharmaceutical composition for oral administration of edaravone and method of administering same” (MITSUBISHI TANABE PHARMA CORPORATION, priority 2020, dated 2025)
Read-outs that look alike come from different tables or passages of the source.

Key:
[1] = Clinical study #6: PK of edaravone oral formulation (formula #3) via PEG tube in ALS patients; type: in vivo, human; conditions: for Cmax: 105 mg
Procedure: Pharmacokinetics of edaravone in administration of the edaravone oral formulation via a PEG tube was evaluated. Specifically, a clinical study #6 described below was conducted in ALS patients with a percutaneous endoscopic gastrostomy tube (PEG tube) (the patient group).
The edaravone oral formulation was administered via a PEG tube to the patient group in fasted conditions after a lapse of 10 hours or longer from consumption of a meal. That is, first, 100 mL of lukewarm water was injected through a PEG tube 1 hour before the administration of the edaravone oral formulation, and 10 mL of lukewarm water was injected through a PEG tube immediately before the administration. Then, the edaravone oral formulation was administered to the PEG tube, and further 10 mL of water was injected through the PEG tube three times to wash in the edaravone oral formulation. In the patient group, ALS patients who had been already administered with an edaravone intravenous infusion formulation were administered with the edaravone oral formulation via a PEG tube after a lapse of 48 hours or longer from the time of completion of the previous administration of the intravenous infusion formulation. Blood samples were each collected before the administration, and 15 minutes, 30 minutes, 1 hour, 2 hours, 4 hours, 8 hours, and 24 hours after the administration, and the concentrations of unchanged edaravone in plasma were measured. […] For the reference example, the results of the reference group in Example 4, in which the edaravone oral formulation of the same formula #3 was administered orally and blood samples were collected, were utilized.
The resulting PK parameters were corrected for body weight of each subject in the patient group adjusted to 70 kg by a proportional calculation. In addition, the results of the PK parameters after correction of the patient group are shown in individual plots as #6 in FIG. 3. A comparison was made between the patient group administered via a PEG tube in Table 10 below and the reference group administered orally in Table 9 above. […] Thus, the difference in the Cmax and the difference in the AUC before weight correction between the patient group administered via a PEG tube and the reference group administered orally seen in Table 10 below are considered due to the difference in body weight between the patient group administered via a PEG tube and the reference group administered orally, and the difference in the Cmax and the difference in the AUC after weight correction between the patient group administered via a PEG tube and the reference group administered orally seen in FIG. 3 are each considered to be within the range of error.

[2] = Clinical study #10: PK of edaravone oral formulation (formula #7, 120 mg), standard meal 30 minutes after administration vs fasted; type: in vivo, human; conditions: 120 mg oral; for Cmax / Tmax / half-life / AUC(0-t): male, human, plasma, po, 120 mg, mean; for AUC(0-t): read-out: AUC0-24h
Procedure: Effects of meal consumption 30 minutes after administration of the edaravone oral formulation on the pharmacokinetics of edaravone were evaluated. Specifically, a clinical study #10 described below was conducted in Japanese healthy adult male subjects. In the clinical study #10, the edaravone oral formulation of the formula #7 (edaravone content of 120 mg) in Table 11 above was used and administered orally once during the study period. […]
As a post-administration consumption group, subjects in fasted conditions after a lapse of 10 hours or longer from meal consumption were orally administered with the edaravone oral formulation, […] Blood samples were each collected before the administration, and 15 minutes, 30 minutes, 1 hour, 1.5 hours, 2 hours, 4 hours, 6 hours, 8 hours, 12 hours, and 24 hours after the administration, and the concentrations of unchanged edaravone in plasma were measured. […] was carried out after the blood sample collection 30 minutes after the administration, and a subsequent meal was not consumed until the blood sample collection 4 hours after the administration was completed.
On the other hand, as a fasted group for reference, the edaravone oral formulation was administered orally to different subjects in fasted conditions, blood samples were collected, and the concentrations of unchanged edaravone in plasma were measured in the same manner.

[3] = Clinical study #1: PK of edaravone oral formulation (formula #1), fasted vs 30 min after high-fat meal; type: in vivo; conditions: male, human, plasma, 200 mg, 200 mg oral
Procedure: Effects of meal consumption before administration of the edaravone oral formulation on the pharmacokinetics of edaravone were evaluated. Specifically, clinical studies #1, #2, and #3 described below were conducted on separate days in Japanese healthy adult male subjects. In each of clinical studies #1, #2, and #3, one dose each of edaravone oral formulations (edaravone suspensions) of formulas #1, #2, and #3 shown in Table 1 below were used respectively and administered orally once during the study period. For each clinical study, a reference study was conducted (reference example), in which the edaravone oral formulation was administered in fasted conditions as described below, and in each clinical study and the corresponding reference study, the edaravone oral formulation was each administered to the same subjects.
For the high-fat meal, a meal with total calories per meal of 800 to 1000 kilocalories and calorie intake from lipid of 50% was used. For the standard meal, a meal with total calories per meal of 400 to 500 kilocalories and calorie intake from lipid of 25% was used. For the light meal, a liquid-type nutritional supplement with total calories per meal of 250 kilocalories (enteral nutritional supplement: Ensure Liquid (trade name)) was used.
The edaravone oral formulation (formula #1) was administered orally to the subjects 30 minutes after high-fat meal consumption. Blood samples were each collected before the administration, and 15 minutes, 30 minutes, 1 hour, 1.5 hours, 2 hours, 4 hours, 6 hours, 8 hours, 12 hours, 24 hours, 36 hours, and 48 hours after the administration, and the concentrations of unchanged edaravone in plasma were measured. On the other hand, as a reference example, the edaravone oral formulation was administered orally to the same subjects in fasted conditions, blood samples were collected, and the concentrations of unchanged edaravone in plasma were measured in the same manner. For the administration in fasted conditions, the edaravone oral formulation was administered orally after a lapse of 10 hours or more from the previous meal consumption (the same applies hereinafter). None of the subjects consumed a next meal until the blood sample collection 4 hours after the administration was completed.

[4] = after weight correction (70 kg)
[5] = human, plasma, 105 mg via PEG tube, fasted, ALS patients, mean, before weight correction
[6] = standard meal 30 minutes after administration vs fasted
[7] = formula #7, 30 min before low-fat meal (n = 6)
[8] = formula #1, 30 min after high-fat meal, mean (n = 5)
[9] = formula #1, fasted, mean (n = 6)

**Q.** Which results are given for `CC1=NN(c2ccccc2)C(=O)C1` [Edaravone, 3-methyl-1-phenyl-2-pyrazolin-5-one]?
**A.** difference in the AUC between the patient group administered via a PEG tube and the reference group administered orally [1, 4]: 9.5%; difference in the Cmax between the patient group administered via a PEG tube and the reference group administered orally [1, 4]: 8.3%; difference in the AUC between the patient group administered via a PEG tube and the reference group administered orally ([1]; before weight correction): 33%; difference in the Cmax between the patient group administered via a PEG tube and the reference group administered orally ([1]; before weight correction): 30%; Cmax ([1]; human, plasma, 105 mg via PEG tube, ALS patients, corrected to 70 kg, read-out: Cmax after weight correction, mean value±standard error): 1580 ± 251 ng/mL; Cmax ([1]; human, plasma, 105 mg via PEG tube, fasted, ALS patients, mean, before weight correction, read-out: Cmax): 2160 ng/mL; AUC ([1]; human, plasma, 105 mg via PEG tube, ALS patients, corrected to 70 kg, read-out: AUC after weight correction, mean value±standard error): 1700 ± 228 ng·h/mL; AUC(0-inf) [1, 5]: 2340 ng·h/mL; Tmax [1, 5]: 0.33 h; decrease in the AUC in comparison with the fasted group [2, 6]: about 14.5%; decrease in the Cmax in comparison with the fasted group [2, 6]: about 12.6%; Cmax [2, 7]: 1950 ng/mL; Tmax [2, 7]: 0.42 h; half-life [2, 7]: 4.6 h; AUC(0-t) [2, 7]: 1920 ng·h/mL; Cmax ([2]; formula #7, fasted (n = 6)): 1740 ng/mL; Tmax ([2]; formula #7, fasted (n = 6)): 0.38 h; half-life ([2]; formula #7, fasted (n = 6)): 5.13 h; AUC(0-t) ([2]; formula #7, fasted (n = 6)): 2240 ng·h/mL; AUC(0-inf) [3, 8]: 2470 ng·h/mL; Cmax [3, 8]: 899 ng/mL; Tmax [3, 8]: 1.35 h; half-life [3, 8]: 5.23 h; AUC(0-inf) [3, 9]: 6310 ng·h/mL; Cmax [3, 9]: 4930 ng/mL; Tmax [3, 9]: 0.42 h; half-life [3, 9]: 9.05 h
